Test results reported in patent publication US20160222024A1, “S-ENANTIOMER OF TETRACYCLIC INDOLE DERIVATIVE AS PBR LIGANDS” (priority 2013, published 2016).
Read-outs that look alike come from different tables or passages of the source.

Columns and labels:
TSPO [1] = conditions: in vitro assay; LABs compared with HABs; cited from earlier work
TSPO [2] = conditions: ratio of low affinity site to high affinity site; racemates
Method: (§1) Membrane protein was prepared from human platelets obtained from 4 donor whole blood samples. […] Platelet pellets were homogenized in 10 ml buffer 1 (0.32 mM sucrose, 5 mM Tris base, 1 mM MgCl2, pH 7.4, 4° C.). The homogenates were centrifuged at 48,000×g for 15 minutes at 4° C. in a Beckman J2-MC centrifuge. The supernatant was removed and pellets were re-suspended in at least 10 ml buffer 2 (50 mM Tris base, 1 mM MgCl2, pH 7.4, 4° C.) and washed by centrifugation at 48,000×g for 15 mM at 4° C. in buffer 2. Membranes were suspended in 2 ml buffer 2 and the protein concentration was determined using Protein Assay Kit II (Bio Rad cat #500-0002). Aliquots were stored at −80° C. until use.
(§2) Aliquots of membrane suspension were thawed and homogenized with assay buffer 3 (50 mM Tris base, 140 mM NaCl, 1.5 mM MgCl2, 5 mM KCl, 1.5 mM CaCl2, pH 7.4, 37° C.). […] GE180 was diluted at 11 serial dilutions ranging from 100 μM to 1 nM. Total and nonspecific binding assessments were also performed. 160 μL of platelet membranes diluted to 30 μg/mL were added to the assay plate for a final volume of 200 μL/well. Assay plates were incubated at 37° C. for at least one hour with termination of incubation by filtering onto GF/B glass fiber plates (Perkin Elmer; cat #6005177) pre-soaked in 0.1% PEI in saline for 60 minutes. Assay plates were rinsed five to six times with ice cold buffer 4 (50 mM Tris Base, 1.4 mM MgCl2, pH 7.4, 4° C.) on a Perkin Elmer Filtermate 196. Plates were then dried, the bottoms sealed, and 50 μL of MicroScint 20 (Perkin Elmer cat #6013621) was added to each well. After sealing the tops, the plates were allowed to equilibrate for at least 30 minutes and the captured radioactivity was counted on a Perkin Elmer TopCount NTX.

TSPO [3] = target: T1, TSPO (Homo sapiens, UniProt P30536, T147A); test: biochemical
T1 sequence (P30536 2-169 T147A): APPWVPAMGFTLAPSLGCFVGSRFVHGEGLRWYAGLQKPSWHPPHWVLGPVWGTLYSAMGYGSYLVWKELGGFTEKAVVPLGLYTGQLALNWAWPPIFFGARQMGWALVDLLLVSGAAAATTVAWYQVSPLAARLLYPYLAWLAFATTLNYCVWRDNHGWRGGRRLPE
Method: as §1, §2

TSPO [4] = target: T2, TSPO (Homo sapiens, UniProt P30536); test: biochemical
T2 sequence (P30536 2-169): as the sequence (P30536 2-169 T147A) above, with A146T counted along it
Method: as §1, §2

TSPO [5] = conditions: ratio of low affinity site to high affinity site; resolved enantiomers
Method: (§3) Membrane protein was prepared from human platelets obtained from 4 donor whole blood samples. Two of these donor samples were previously identified as having high affinity and 2 identified as having low affinity based on PBR28 binding affinity. Platelet pellets were homogenized in 10 ml buffer 1 (0.32 mM sucrose, 5 mM Tris base, 1 mM MgCl2, pH 7.4, 4° C.). The homogenates were centrifuged at 48,000×g for 15 minutes at 4° C. in a Beckman J2-MC centrifuge. The supernatant was removed and pellets were re-suspended in at least 10 ml buffer 2 (50 mM Tris base, 1 mM MgCl2, pH 7.4, 4° C.) and washed by centrifugation at 48,000×g for 15 mM at 4° C. in buffer 2. Membranes were suspended in 2 ml buffer 2 and the protein concentration was determined using Protein Assay Kit II (Bio Rad cat #500-0002). Aliquots were stored at −80° C. until use.
(§4) Aliquots of membrane suspension were thawed and homogenized with assay buffer 3 (50 mM Tris base, 140 mM NaCl, 1.5 mM MgCl2, 5 mM KCl, 1.5 mM CaCl2, pH 7.4, 37° C.). […] Compound 1 was diluted on a Beckman Biomek 2000 workstation at 11 serial dilutions ranging from 1 μM to 0.01 nM. GE180 was diluted at 11 serial dilutions ranging from 100 μM to 1 nM. Total and nonspecific binding assessments were also performed. 160 μL of platelet membranes diluted to 30 μg/mL were added to the assay plate for a final volume of 200 μL/well. Assay plates were incubated at 37° C. for at least one hour with termination of incubation by filtering onto GF/B glass fiber plates (Perkin Elmer; cat #6005177) pre-soaked in 0.1% PEI in saline for 60 minutes. Assay plates were rinsed five to six times with ice cold buffer 4 (50 mM Tris Base, 1.4 mM MgCl2, pH 7.4, 4° C.) on a Perkin Elmer Filtermate 196. Plates were then dried, the bottoms sealed, and 50 μL of MicroScint 20 (Perkin Elmer cat #6013621) was added to each well. After sealing the tops, the plates were allowed to equilibrate for at least 30 minutes and the captured radioactivity was counted on a Perkin Elmer TopCount NTX.

TSPO [6] = target: T1, TSPO; test: biochemical; remark: listed apart in the source
Method: as §3, §4

TSPO [7] = target: T2, TSPO; test: biochemical; remark: listed apart in the source
Method: as §3, §4

TSPO [8] = conditions: compared with [11C]PBR28; cited from earlier work

SMILES: COc1ccccc1CN(C(C)=O)c1cnccc1Oc1ccccc1 [[^3H]PBR28]
- lower TSPO affinity in LABs than in HABs (TSPO [1]): more than 10 fold

SMILES: CCN(CC)C(=O)C1Sc2ccccc2-c2c1c1c(OC)cccc1n2CCF (racemic) [Compound 1, N,N-diethyl-11-(2-fluoroethyl)-7-methoxy-6,11-dihydrothiochromeno[4,3-b]indole-6-carboxamide]
- Low:High affinity ratio (TSPO [2]): 9.87
- Ki (TSPO [3]): 0.05 nM
- Ki (TSPO [4]): 0.51 nM

SMILES: CCN(CC)C(=O)[C@H]1Sc2ccccc2-c2c1c1ccc(OC)cc1n2CC[18F] [Compound 1 E2]
- Low:High affinity ratio (TSPO [5]): 1
- Ki (TSPO [6]): 3 nM
- Ki (TSPO [7]): 4 nM

SMILES: CCN(CC)C(=O)[C@@H]1Sc2ccccc2-c2c1c1ccc(OC)cc1n2CCF [Compound 1 E1]
- Low:High affinity ratio (TSPO [5]): 2
- Ki (TSPO [6]): 15 nM
- Ki (TSPO [7]): 31 nM

SMILES: CCC(C)N(C)C(=O)c1cc2ccccc2c(-c2ccccc2Cl)n1 (stereo not shown) [[^11C]PK11195]
- in vivo specific binding in monkey brain, lower than that reported for [11C]PBR28 (TSPO [8]): ~80 fold

SMILES: COc1ccccc1CN(C(C)=O)c1cnccc1Oc1ccccc1 [PBR28, N-(2-methoxybenzyl)-N-(4-phenoxypyridin-3-yl)acetamide]
- Low:High affinity ratio (TSPO [5]): 28
- Ki (TSPO [6]): 4 nM
- Ki (TSPO [7]): 117 nM

SMILES: CCN(CC)C(=O)[C@H]1CCCc2c1c1c(OC)cccc1n2CCF (stereo in doubt) [GE180, 9-(2-Fluoro-ethyl)-5-methoxy-2,3,4,9-tetrahydro-1H-carbazole-4-carboxylic acid diethylamide]
- Low:High affinity ratio (TSPO [5]): 3
- Low:High affinity ratio (TSPO [2]): 15.44
